Patent US8318737B2, “Compounds and compositions for treating cancer” (Canthera Therapeutics Inc., priority 2009, dated 2012)
≈ marks a conversion by molar mass, not a printed value. Counter-ions that a name gives are not always drawn.

Legend:
solubility in water = assay type: physicochemical
[1] = precipitation of DMSO solution diluted 1:10 in phosphate buffered saline or water; assay type: physicochemical
Method: The compounds of the present invention may be produced using piperlongumine as a starting material yet offer numerous advantages over piperlongumine. […] The compounds of the instant invention are highly soluble in water at concentration of at least 25 mg/mL facilitating pharmaceutical preparation and delivery. Many chemotherapeutic agents transiently increase ROS levels in both cancer cells and normal cells.

Row | solubility (solubility in water) | SMILES | solubility in water (solubility in water) | concentration in DMSO that precipitated out when diluted 1:10 [1]
1 | 100 mg/mL | COc1cc(/C=C/C(=O)N2CCC=CC2=O)cc(OC)c1OCCN1CCOCC1 [tartrate salt of compound one] | – | –
2 | – | COc1cc(/C=C/C(=O)N2CCC=CC2=O)cc(OC)c1OC [piperlongumine, Piperlongumine] | 0.1 mg/mL (≈ 315 µM) | more than 0.25 mg/ml
